Reference: PubChem BioAssay (NCI)
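Values below derive from 48-hour exposures of cells grown in 96-well plates, with endpoints linearly interpolated between the two concentrations bracketing the appropriate inhibition level. At the TGI there is no net growth.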

Tests used:
Test in all cases: NCI tumour cell line growth inhibition, 48 h
[1] = test system: 786-0 renal
[2] = test system: A498 renal
[3] = test system: A549 NSCLC
[4] = test system: ACHN renal
[5] = test system: BT-549 breast
[6] = test system: CAKI-1 renal
[7] = test system: CCRF-CEM leukemia
[8] = test system: COLO 205 colon
[9] = test system: DU-145 prostate
[10] = test system: EKVX NSCLC
[11] = test system: HCC-2998 colon
[12] = test system: HCT-116 colon
[13] = test system: HCT-15 colon
[14] = test system: HL-60(TB) leukemia
[15] = test system: HOP-62 NSCLC
[16] = test system: HOP-92 NSCLC
[17] = test system: HS 578T breast
[18] = test system: HT29 colon
[19] = test system: IGROV1 ovarian
[20] = test system: K-562 leukemia
[21] = test system: KM12 colon
[22] = test system: LOX IMVI melanoma
[23] = test system: M14 melanoma
[24] = test system: MALME-3M melanoma
[25] = test system: MCF7 breast
[26] = test system: MDA-MB-231 breast
[27] = test system: MDA-MB-435
[28] = test system: MDA-N
[29] = test system: MOLT-4 leukemia
[30] = test system: NCI-H226 lung
[31] = test system: NCI-H23 lung
[32] = test system: NCI-H460 lung
[33] = test system: NCI-H522 lung
[34] = test system: NCI/ADR-RES ovarian
[35] = test system: OVCAR-3 ovarian
[36] = test system: OVCAR-4 ovarian
[37] = test system: OVCAR-5 ovarian
[38] = test system: OVCAR-8 ovarian
[39] = test system: PC-3 prostate
[40] = test system: RXF 393 renal
[41] = test system: SF-268 CNS
[42] = test system: SF-295 CNS
[43] = test system: SF-539 CNS
[44] = test system: SK-MEL-2 melanoma
[45] = test system: SK-MEL-28 melanoma
[46] = test system: SK-MEL-5 melanoma
[47] = test system: SK-OV-3 ovarian
[48] = test system: SN12C renal
[49] = test system: SNB-19 CNS
[50] = test system: SNB-75 CNS
[51] = test system: SR leukemia
[52] = test system: SW-620 colon
[53] = test system: T-47D breast
[54] = test system: TK-10 renal
[55] = test system: U251 CNS
[56] = test system: UACC-257 melanoma
[57] = test system: UACC-62 melanoma
[58] = test system: UO-31 renal
[59] = test system: RPMI-8226 leukemia

Compound CC(C)(C)OC(=O)[C@@H]1CCC(=O)N1C1(c2ccccc2)c2ccccc2-c2ccccc21 has a TGI [1] of over 100 µM, a TGI [2] of over 100 µM and a TGI [3] of over 100 µM. For the same compound, the TGI [4] was over 100 µM, the TGI [5] was over 100 µM and the TGI [6] was over 100 µM. The TGI [7] was 43.7 µM, the TGI [8] was 77.8 µM and the TGI [9] was over 100 µM. It also gave a TGI [10] of over 100 µM, a TGI [11] of over 100 µM and a TGI [12] of over 100 µM. The TGI [13] was over 100 µM, the TGI [14] was 61.8 µM and the TGI [15] was over 100 µM. It also gave a TGI [16] of over 100 µM, a TGI [17] of over 100 µM and a TGI [18] of 90.1 µM. It also gave a TGI [19] of over 100 µM, a TGI [20] of over 100 µM and a TGI [21] of over 100 µM. The TGI [22] was 37.2 µM, the TGI [23] was over 100 µM and the TGI [24] was over 100 µM. For the same compound, the TGI [25] was over 100 µM, the TGI [26] was 86.1 µM and the TGI [27] was over 100 µM. For the same compound, the TGI [28] was 96.8 µM, the TGI [29] was 51.5 µM and the TGI [30] was over 100 µM. For the same compound, the TGI [31] was over 100 µM, the TGI [32] was over 100 µM and the TGI [33] was 94 µM. The TGI [34] was over 100 µM, the TGI [35] was over 100 µM and the TGI [36] was over 100 µM. The TGI [37] was over 100 µM, the TGI [38] was over 100 µM and the TGI [39] was over 100 µM. The TGI [40] was 32.2 µM, the TGI [41] was over 100 µM and the TGI [42] was 61.1 µM. For the same compound, the TGI [43] was 35.7 µM, the TGI [44] was over 100 µM and the TGI [45] was 71.3 µM. For the same compound, the TGI [46] was 51.9 µM, the TGI [47] was over 100 µM and the TGI [48] was over 100 µM. The TGI [49] was over 100 µM, the TGI [50] was over 100 µM and the TGI [51] was 62.3 µM. The TGI [52] was 87.1 µM, the TGI [53] was over 100 µM and the TGI [54] was over 100 µM. It also gave a TGI [55] of 73.8 µM, a TGI [56] of over 100 µM and a TGI [57] of over 100 µM. It also gave a TGI [58] of over 100 µM.
Compound Nc1cc2c(c3ccccc13)C(CCl)CN2C(=O)c1cc2cc(NC(=O)Nc3ccc4[nH]c(C(=O)N5CC(CCl)c6c5cc(N)c5ccccc65)cc4c3)ccc2[nH]1 (stereo not given) has a TGI [1] of 0.258 µM, a TGI [2] of 0.832 µM and a TGI [5] of 4.53 µM. For the same compound, the TGI [6] was 0.444 µM, the TGI [7] was 2.98 µM and the TGI [8] was 2.07 µM. For the same compound, the TGI [9] was 0.704 µM, the TGI [10] was 6.38 µM and the TGI [11] was 1.19 µM. The TGI [12] was 1.13 µM, the TGI [13] was over 32.3 µM and the TGI [15] was 1.55 µM. The TGI [16] was over 100 µM, the TGI [17] was 12.3 µM and the TGI [18] was 2.01 µM. It also gave a TGI [19] of 1.4 µM, a TGI [20] of over 100 µM and a TGI [21] of 3.22 µM. For the same compound, the TGI [22] was 12 µM, the TGI [23] was 0.644 µM and the TGI [24] was 2.03 µM. The TGI [25] was 1.4 µM, the TGI [26] was 2.16 µM and the TGI [27] was 4.33 µM. It also gave a TGI [28] of 2.49 µM, a TGI [30] of 1.81 µM and a TGI [31] of 1.02 µM. It also gave a TGI [32] of over 100 µM, a TGI [33] of 1.42 µM and a TGI [34] of 39.4 µM. For the same compound, the TGI [35] was 2.41 µM, the TGI [36] was over 100 µM and the TGI [37] was 4.22 µM. For the same compound, the TGI [39] was 12.8 µM, the TGI [59] was over 23.3 µM and the TGI [40] was 0.248 µM. It also gave a TGI [41] of 8.15 µM, a TGI [42] of 2.99 µM and a TGI [43] of 1.11 µM. For the same compound, the TGI [44] was 2.17 µM, the TGI [45] was 2.52 µM and the TGI [46] was 0.341 µM. The TGI [47] was over 24.3 µM, the TGI [48] was over 100 µM and the TGI [50] was 0.73 µM. For the same compound, the TGI [51] was 1.13 µM, the TGI [52] was 2.07 µM and the TGI [53] was 1.34 µM. It also gave a TGI [54] of 3.75 µM, a TGI [56] of 3.24 µM and a TGI [57] of 1.05 µM. For the same compound, the TGI [58] was 1.4 µM.
